From US8648081B2 (Eli Lilly and Company, priority 2011, dated 2014)

test system: Lone star tick larvae (Amblyomma americanum); experiment: In Vitro Larval Immersion Microassay (LIM); settings: read-out: % Efficacy (percent larval mortality)
Experimental: In Vitro Larval Immersion Microassay (LIM)
The larval immersion microassay may be conducted as described in White, et al., J. Med. Entomol. […] Briefly, experimental test articles are formulated in dimethylsulfoxide (DMSO) to prepare a stock solution at a concentration of 10 mM. […] Approximately 30-50 Lone star tick larvae (Amblyomma americanum) are submerged into each well containing experimental test articles. After a 30 minute immersion period, larvae are removed with a wide-bore pipette tip in 0.05 ml of fluid, dispensed into a commercial paper tissue biopsy bag which is sealed at the top with a plastic dialysis clip, inverted and allowed to air dry for 60 minutes. Bags containing larvae are then incubated at approximately 27 degrees Celsius and >90% relative humidity. After 24 hours, bags are opened, live and dead larvae are counted and percent larval mortality is calculated as follows: % Efficacy=(# dead larvae)/(# total larvae)×100.

Row | SMILES | mortality at 300 µM
1 | O=C(N[C@@H]1CCNC1=O)c1sc(C2=NOC(c3cc(Cl)cc(Cl)c3)(C(F)(F)F)C2)c2c1CCCC2 (stereo partly drawn) [Example 32, 3-(5-(3,5-dichlorophenyl)-5-(trifluoromethyl)-4,5-dihydroisoxazol-3-yl)-N—((R)-2-oxopyrrolidin-3-yl)-4,5,6,7-tetrahydrobenzo[c]thiophene-1-carboxamide] | ≥ 80%
2 | O=C(CNC(=O)c1sc(C2=NOC(c3cc(Cl)cc(Cl)c3)(C(F)(F)F)C2)c2c1CCC2)NCC(F)(F)F (stereo not shown) [Example 36, 3-(5-(3,5-dichloro-phenyl)-5-(trifluoro-methyl)-4,5-dihydro-isoxazol-3-yl)-N-(2-oxo-2-(2,2,2-trifluoroethylamino)ethyl)-5,6-dihydro-4H-cyclopenta[c] thiophene-1-carboxamide] | ≥ 80%
3 | O=C(NC1CS(=O)(=O)C1)c1sc(C2=NOC(c3cc(Cl)cc(Cl)c3)(C(F)(F)F)C2)c2c1CCCC2 (stereo not shown) [Example 37, 3-[5-(3,5-Dichloro-phenyl)-5-trifluoro-methyl-4,5-dihydro-isoxazol-3-yl]-4,5,6,7-tetrahydro-benzo[c] thiophene-1-carboxylic acid (1,1-dioxo-thietan-3-yl)-amide] | ≥ 80%
4 | O=C1CCCC(NC(=O)c2sc(C3=NOC(c4cc(Cl)cc(Cl)c4)(C(F)(F)F)C3)c3c2CCCC3)C1 (stereo not shown) [Example 38, 3-(5-(3,5-dichloro-phenyl)-5-(trifluoro-methyl)-4,5-dihydro-isoxazol-3-yl)-N-(3-oxocyclohexyl)-4,5,6,7-tetrahydrobenzo [c]thiophene-1-carboxamide] | ≥ 80%
5 | O=C(NC1CCS(=O)(=O)CC1)c1sc(C2=NOC(c3cc(Cl)cc(Cl)c3)(C(F)(F)F)C2)c2c1CCCC2 (stereo not shown) [Example 39, 3-[5-(3,5-Dichloro-phenyl)-5-trifluoro-methyl-4,5-dihydro-isoxazol-3-yl]-4,5,6,7-tetrahydro-benzo [c]thiophene-1-carboxylic acid (1,1-dioxo-hexahydro-116-thiopyran-4-yl)-amide] | ≥ 80%
6 | O=C(NC1CCN(CC(F)(F)F)C1=O)c1sc(C2=NOC(c3cc(Cl)cc(Cl)c3)(C(F)(F)F)C2)c2c1CCCC2 (stereo not shown) [Example 40, 3-[5-(3,5-Dichloro-phenyl)-5-trifluoro-methyl-4,5-dihydro-isoxazol-3-yl]-4,5,6,7-tetrahydro-benzo[c] thiophene-1-carboxylic acid [2-oxo-1-(2,2,2-trifluoro-ethyl)-pyrrolidin-3-yl]-amide] | ≥ 80%
7 | O=C(N[C@@H]1CCNC1=O)c1sc(C2=NOC(c3cc(Cl)cc(Cl)c3)(C(F)(F)F)C2)c2c1CCC2 (stereo partly drawn) [Example 41, 3-(5-(3,5-dichloro-phenyl)-5-(trifluoro-methyl)-4,5-dihydro-isoxazol-3-yl)-N-((R)-2-oxopyrrolidin-3-yl)-5,6-dihydro-4H-cyclopenta[c] thiophene-1-carboxamide] | ≥ 80%
8 | N#CCNC(=O)CNC(=O)c1sc(C2=NOC(c3cc(Cl)cc(Cl)c3)(C(F)(F)F)C2)c2c1CCC2 (stereo not shown) [Example 42, N-(2-(cyanomethyl-amino)-2-oxoethyl)-3-(5-(3,5-dichlorophenyl)-5-(trifluoromethyl)-4,5-dihydroisoxazol-3-yl)-5,6-dihydro-4H-cyclopenta[c]thiophene-1-carboxamide] | ≥ 80%
9 | C#CCNC(=O)CNC(=O)c1sc(C2=NOC(c3cc(Cl)cc(Cl)c3)(C(F)(F)F)C2)c2c1CCC2 (stereo not shown) [Example 43, 3-(5-(3,5-dichloro-phenyl)-5-(trifluoro-methyl)-4,5-dihydro-isoxazol-3-yl)-N-(2-oxo-2-(prop-2-ynylamino)ethyl)-5,6-dihydro-4H-cyclopenta[c] thiophene-1-carboxamide] | ≥ 80%
10 | O=C(CNC(=O)c1sc(C2=NOC(c3cc(Cl)c(Cl)c(Cl)c3)(C(F)(F)F)C2)c2c1CCCC2)NCC(F)(F)F (stereo not shown) [Example 44, N-(2-oxo-2-(2,2,2-trifluoroethylamino)ethyl)-3-(5-(3,4,5-trichlorophenyl)-5-(trifluoromethyl)-4,5-dihydroisoxazol-3-yl)-4,5,6,7-tetrahydrobenzo [c]thiophene-1-carboxamide] | ≥ 80%
